Test results published in US10154813B1, “Method and apparatus for patient skin color monitoring and drug efficacy measurement” (priority 2017, dated 2018).

Test system: microvascular endothelium (skin, right arm, anterior position) of Congestive Heart Failure patients
Test: Skin colorimetry (a, b, L) before and after application of “μ” in Congestive Heart Failure patients on Valsartan, monthly for 9 months
Assay type: in vivo, human
Design: key to a. Wet after “μ”: a = red/green colour coordinate (colorimeter); key to b (Wet): b = yellow/blue colour coordinate (colorimeter)
Settings: for L / a / b: baseline before μ; for L (Wet) / a. Wet after “μ” / b (Wet): wet after μ
Source text: As stated above, one available quantitative color system is the L*a*b* color space or Hunter L/a/b color space, which can be visualized as a rectangular 3D coordinate system. L indicates lightness, a is the red/green coordinate, and b is the yellow/blue coordinate. L can have a value from 0 (black) to 100 (perfect reflection). The a and b axes have no numerical limits. Coordinate a is positive when red, and negative when green. Positive b is yellow, and negative b is blue. Colors can be described numerically using numerical values for L, a, and b. Differences between two colors can be quantified for each of the individual L/a/b values (ΔL, Δa, Δb). Overall differences between two colors can be derived numerically based on the three Δ values.
μ=drug applied before colorimeter and/or spectrophotometer measurements.
L1, a1, b1=Initial measurement.
L2, a2, b2=Measurement with μ applied. L2−L1=ΔLμ(L2 minus L1)=change in lightness and darkness(+=lighter,−=darker) a2−a1=Δaμ(a2 minus a1)=change in red and green(+=redder,−=greener) b2−b1=Δbμ(b2 minus b1)=change in yellow and blue(+=yellower,−=bluer)
With reference to the tables below and to FIG. 18, the three different patients (Patient A, Patient B, and Patient C) had new diagnosis of Congestive Heart Failure (CHF). Patient A, B, C have diastolic and systolic heart failure with an ejection fraction of 35% with normal coronary artery disease by angiography. All three patients were started on an angiotensin receptor blocker Valsartan and followed continuously every month for 9 months. The a, b, L were calculated before and after the “μ” has been applied shown in color red. The blue indicates the baseline. At the initiation of the CHF medication Valsartan, the patient has a normal response of the microvascular endothelium after the application of “μ” in the calculations of a, b, L. All colorimetric and spectrophotometric calculations are performed at the same location on the right arm, in the anterior position in all three patients continuously for 9 months. The titration of Valsartan was maximized in all three patients. […] This occurs because it is the desired effect of the CHF medication in the above patients over the period of 9 months. The current standard of care is to improve the heart function in CHF. The cardiologist lowers the ionotropic and chronotropic effect of the heart in CHF patients. The above methodology allows for the appropriate and desired effect in being able to titrate the medication and know how much medicine to administer to the patient by either decreasing or increasing the Valsartan dose. This is performed to achieve the necessary effect of pharmacotherapy with limiting the exacerbation of heart failure symptoms in such patients. It allows for healthcare providers to also know if the effects of the medications are adequate and they are in fact working appropriately on the microscopic endothelium level of the patient. As the months progressed in the patients above, the red line calculations indicate a decreased microvascular endothelial flow. This is evaluated by measuring a decrease in the a shift.
This correlates with a decrease in the ionotropic and chronotropic effect of the heart in these patients. This is the desired effect and outcome that the cardiologist is trying to achieve. The calculation of a, b, L, after “μ” is applied is objectively calculated in these CHF patients, allowing for the proper titration of maximum medication administration while limiting the side effects of the medications concurrently.

`CCCCC(=O)N(Cc1ccc(-c2ccccc2-c2nnn[nH]2)cc1)[C@H](C(=O)O)C(C)C` [Valsartan] was tested, and the L (Patient A, April 2017) was 70.87, the a (Patient A, April 2017) was 5.05 and the b (Patient A, April 2017) was 16.72. For the same compound, the L (Patient A, December 2016) was 70.63, the a (Patient A, December 2016) was 5.20 and the b (Patient A, December 2016) was 16.61. For the same compound, the L (Patient A, February 2017) was 70.24, the a (Patient A, February 2017) was 5.12 and the b (Patient A, February 2017) was 15.42. The L (Patient A, January 2017) was 71.68, the a (Patient A, January 2017) was 4.70 and the b (Patient A, January 2017) was 14.67. The L (Patient A, July 2017) was 71.63, the a (Patient A, July 2017) was 5.48 and the b (Patient A, July 2017) was 14.62. For the same compound, the L (Patient A, June 2017) was 69.91, the a (Patient A, June 2017) was 5.02 and the b (Patient A, June 2017) was 15.64. The L (Patient A, March 2017) was 70.42, the a (Patient A, March 2017) was 5.14 and the b (Patient A, March 2017) was 16.14. For the same compound, the L (Patient A, May 2017) was 71.99, the a (Patient A, May 2017) was 4.98 and the b (Patient A, May 2017) was 15.47. It also gave an L (Patient A, November 2016) of 70.10, an a (Patient A, November 2016) of 5.59 and a b (Patient A, November 2016) of 15.39. The “L (Wet)” value (Patient A, April 2017) was 70.72, the “a. Wet after “μ”” value (Patient A, April 2017) was 4.54 and the “b (Wet)” value (Patient A, April 2017) was 16.78. The “L (Wet)” value (Patient A, December 2016) was 69.98, the “a. Wet after “μ”” value (Patient A, December 2016) was 6.35 and the “b (Wet)” value (Patient A, December 2016) was 16.81. The “L (Wet)” value (Patient A, February 2017) was 70.12, the “a. Wet after “μ”” value (Patient A, February 2017) was 6.08 and the “b (Wet)” value (Patient A, February 2017) was 16.44. For the same compound, the “L (Wet)” value (Patient A, January 2017) was 71.76, the “a. Wet after “μ”” value (Patient A, January 2017) was 6.48 and the “b (Wet)” value (Patient A, January 2017) was 16.48. For the same compound, the “L (Wet)” value (Patient A, July 2017) was 70.04, the “a. Wet after “μ”” value (Patient A, July 2017) was 4.46 and the “b (Wet)” value (Patient A, July 2017) was 16.31. For the same compound, the “L (Wet)” value (Patient A, June 2017) was 70.54, the “a. Wet after “μ”” value (Patient A, June 2017) was 4.43 and the “b (Wet)” value (Patient A, June 2017) was 15.89. The “L (Wet)” value (Patient A, March 2017) was 69.42, the “a. Wet after “μ”” value (Patient A, March 2017) was 4.64 and the “b (Wet)” value (Patient A, March 2017) was 16.85. For the same compound, the “L (Wet)” value (Patient A, May 2017) was 69.79, the “a. Wet after “μ”” value (Patient A, May 2017) was 4.20 and the “b (Wet)” value (Patient A, May 2017) was 15.62. For the same compound, the “L (Wet)” value (Patient A, November 2016) was 68.40, the “a. Wet after “μ”” value (Patient A, November 2016) was 7.06 and the “b (Wet)” value (Patient A, November 2016) was 16.16. For the same compound, the L (Patient B, April 2017) was 73.95, the a (Patient B, April 2017) was 3.25 and the b (Patient B, April 2017) was 15.34. It also gave an L (Patient B, December 2016) of 72.77, an a (Patient B, December 2016) of 3.36 and a b (Patient B, December 2016) of 4.88. The L (Patient B, February 2017) was 74.52, the a (Patient B, February 2017) was 3.06 and the b (Patient B, February 2017) was 13.98. For the same compound, the L (Patient B, January 2017) was 74.06, the a (Patient B, January 2017) was 2.66 and the b (Patient B, January 2017) was 15.09. It also gave an L (Patient B, July 2017) of 74.23, an a (Patient B, July 2017) of 4.20 and a b (Patient B, July 2017) of 14.14. For the same compound, the L (Patient B, June 2017) was 74.05, the a (Patient B, June 2017) was 3.85 and the b (Patient B, June 2017) was 14.35. The L (Patient B, March 2017) was 74.43, the a (Patient B, March 2017) was 3.09 and the b (Patient B, March 2017) was 14.08. For the same compound, the L (Patient B, May 2017) was 73.52, the a (Patient B, May 2017) was 3.40 and the b (Patient B, May 2017) was 15.02. For the same compound, the L (Patient B, November 2016) was 73.44, the a (Patient B, November 2016) was 4.15 and the b (Patient B, November 2016) was 13.69.
